{"source": "ChEMBL document CHEMBL1156393", "about": "“Pibocin B, the first N-O-methylindole marine alkaloid, a metabolite from the Far-Eastern ascidian Eudistoma species” (2001)", "test": "Cytotoxicity against mouse EAC cells", "format": "functional", "details": "Ehrlich, read-out: ED50 (the source's name)", "data": [{"smiles": "COn1c(Br)c2c3c(cccc31)[C@H]1C[C@@H](C)CN(C)[C@@H]1C2", "note": "[PIBOCIN B]", "values": [{"measurement": "EC50", "value": 25, "unit": "µg/mL"}]}]}
